# Measurements from article PMC9927415, “Tyrosine Kinase Inhibitors Display Potent Activity against Cryptosporidium parvum” (Microbiology Spectrum, 2022).
# Assays:
# Assay in all cases: KINOMEscan competitive binding, whole panel
# panel of 203 kinases [1] = biological target: T1, panel of 203 kinases (Homo sapiens, UniProt O94768); conditions: 10 µM, n=1; kinase DRAK2; read-out: Percent inhibition DRAK2
# T1 construct: purchased DiscoverX (KINOMEscan)
# T1 sequence (O94768 1-372): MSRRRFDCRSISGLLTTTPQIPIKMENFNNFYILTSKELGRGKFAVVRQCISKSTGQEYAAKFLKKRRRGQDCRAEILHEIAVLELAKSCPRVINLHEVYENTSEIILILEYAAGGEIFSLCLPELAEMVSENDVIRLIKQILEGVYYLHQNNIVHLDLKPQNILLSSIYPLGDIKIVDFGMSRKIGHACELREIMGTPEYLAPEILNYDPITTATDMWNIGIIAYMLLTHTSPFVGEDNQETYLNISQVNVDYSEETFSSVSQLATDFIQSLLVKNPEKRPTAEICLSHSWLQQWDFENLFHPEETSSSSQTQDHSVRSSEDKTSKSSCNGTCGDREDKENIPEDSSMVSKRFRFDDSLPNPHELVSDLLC
# How it was run: (§1)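 Kinases expressed as T7 bacteriophage fusions; test compound competes with an immobilized ATP-site probe ligand. Kinase still bound to the solid support was quantified and expressed as percentage inhibition.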
# panel of 203 kinases [2] = biological target: T2, panel of 203 kinases (Homo sapiens, UniProt P06213); conditions: 10 µM, n=1; kinase INSR; read-out: Percent inhibition INSR
# T2 construct: purchased DiscoverX (KINOMEscan)
# How it was run: as §1
# panel of 203 kinases [3] = biological target: T3, panel of 203 kinases (Homo sapiens, UniProt P19784); conditions: 10 µM, n=1; kinase CSNK2A2; read-out: Percent inhibition CSNK2A2
# T3 construct: purchased DiscoverX (KINOMEscan)
# How it was run: as §1
# panel of 203 kinases [4] = biological target: T4, panel of 203 kinases (Homo sapiens, UniProt P36894); conditions: 10 µM, n=1; kinase BMPR1A; read-out: Percent inhibition BMPR1A
# T4 construct: purchased DiscoverX (KINOMEscan)
# How it was run: as §1
# panel of 203 kinases [5] = biological target: T5, panel of 203 kinases (Homo sapiens, UniProt P42684); conditions: 10 µM, n=1; kinase ABL2; read-out: Percent inhibition ABL2
# T5 construct: purchased DiscoverX (KINOMEscan)
# How it was run: as §1
# panel of 203 kinases [6] = biological target: T6, panel of 203 kinases (Homo sapiens, UniProt P45984); conditions: 10 µM, n=1; kinase JNK2; read-out: Percent inhibition JNK2
# T6 construct: purchased DiscoverX (KINOMEscan)
# How it was run: as §1
# panel of 203 kinases [7] = biological target: T7, panel of 203 kinases (Homo sapiens, UniProt Q9P0L2); conditions: 10 µM, n=1; kinase MARK1; read-out: Percent inhibition MARK1
# T7 construct: purchased DiscoverX (KINOMEscan)
# How it was run: as §1
# panel of 203 kinases [8] = biological target: T8, panel of 203 kinases (Homo sapiens, UniProt Q9P289); conditions: 10 µM, n=1; kinase MST4; read-out: Percent inhibition MST4
# T8 construct: purchased DiscoverX (KINOMEscan)
# How it was run: as §1
# panel of 203 kinases [9] = biological target: T9, panel of 203 kinases (Homo sapiens, UniProt Q9UF33); conditions: 10 µM, n=1; kinase EPHA6; read-out: Percent inhibition EPHA6
# T9 construct: purchased DiscoverX (KINOMEscan)
# T9 sequence (Q9UF33 23-1036): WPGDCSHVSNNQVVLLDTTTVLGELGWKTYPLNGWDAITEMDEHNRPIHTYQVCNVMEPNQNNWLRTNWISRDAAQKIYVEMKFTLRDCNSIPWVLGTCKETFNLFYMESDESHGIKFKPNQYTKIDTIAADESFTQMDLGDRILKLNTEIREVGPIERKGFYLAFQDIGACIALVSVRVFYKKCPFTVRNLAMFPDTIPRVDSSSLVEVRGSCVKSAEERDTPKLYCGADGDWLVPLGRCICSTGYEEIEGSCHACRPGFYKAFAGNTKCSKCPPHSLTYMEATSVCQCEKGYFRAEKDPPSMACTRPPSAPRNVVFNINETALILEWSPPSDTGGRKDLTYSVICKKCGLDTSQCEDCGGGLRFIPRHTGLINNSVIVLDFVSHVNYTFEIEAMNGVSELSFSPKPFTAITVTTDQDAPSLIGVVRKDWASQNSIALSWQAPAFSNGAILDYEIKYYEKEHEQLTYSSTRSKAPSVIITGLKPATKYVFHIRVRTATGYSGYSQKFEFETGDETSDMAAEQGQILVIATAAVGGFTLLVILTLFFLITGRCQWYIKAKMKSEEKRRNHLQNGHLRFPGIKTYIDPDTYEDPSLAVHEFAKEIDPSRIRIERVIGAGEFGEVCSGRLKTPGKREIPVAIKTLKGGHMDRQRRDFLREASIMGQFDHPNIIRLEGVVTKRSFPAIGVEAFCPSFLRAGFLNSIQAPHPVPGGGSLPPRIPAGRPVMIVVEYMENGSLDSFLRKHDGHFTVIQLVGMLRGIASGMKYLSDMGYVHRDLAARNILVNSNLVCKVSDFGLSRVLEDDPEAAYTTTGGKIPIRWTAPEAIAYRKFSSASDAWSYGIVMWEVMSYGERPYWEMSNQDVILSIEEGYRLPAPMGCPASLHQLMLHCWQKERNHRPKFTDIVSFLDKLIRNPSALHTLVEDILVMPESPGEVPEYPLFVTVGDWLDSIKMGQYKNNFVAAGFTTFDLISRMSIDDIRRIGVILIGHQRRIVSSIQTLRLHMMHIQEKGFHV
# How it was run: as §1
Structure (SMILES),inhibition at 10 µM (panel of 203 kinases [1]) [%],inhibition at 10 µM (panel of 203 kinases [2]) [%],inhibition at 10 µM (panel of 203 kinases [3]) [%],inhibition at 10 µM (panel of 203 kinases [4]) [%],inhibition at 10 µM (panel of 203 kinases [5]) [%],inhibition at 10 µM (panel of 203 kinases [6]) [%],inhibition at 10 µM (panel of 203 kinases [7]) [%],inhibition at 10 µM (panel of 203 kinases [8]) [%],inhibition at 10 µM (panel of 203 kinases [9]) [%]
C[C@@H](Oc1cc(-c2cnc3ccccn23)sc1C(N)=O)c1ccccc1Cl [Compound 8],0,0,95.2,0,0,0,0,0,0
Cc1ccc(O)cc1N(C)c1ccnc(Nc2cccc(S(N)(=O)=O)c2)n1 [Compound 4],0,0,0,97,100,71.3,0,0,100
COc1cc(Nc2nccc(-c3sc(N)nc3-c3cccc(NC(=O)c4c(F)cccc4F)c3)n2)cc(OC)c1OC [Compound 7],0,97.3,0,0,100,99,79,89.2,100
CN1CCN(c2ccc(Nc3nccc(-c4cnn5ncccc45)n3)cc2C#N)CC1 [Compound 1],82.4,94.3,96.3,0,95,96.5,85.3,92.8,0
Fc1cccc(COc2ccc(Nc3ncnc4c3CN(CCN3CCOCC3)CC4)cc2Cl)c1 [Compound 6],0,0,0,0,0,0,0,0,0
Cc1ccc(O)cc1Nc1ccnc(Nc2cccc(C(N)=O)c2)n1 [Compound 3],0,0,0,99.2,100,0,0,0,100
Clc1ccc(Nc2ncc(-c3ccccc3)s2)cc1 [Compound 10],0,0,0,0,0,0,0,0,0
COc1ccc(Nc2nccc(-c3cnn4ncccc34)n2)cc1 [Compound 2],88.6,76.9,74.2,0,92.5,99.1,0,0,65.1
c1ccc(COc2cccc(-c3ccnc4[nH]ccc34)c2)cc1 [Compound 9],0,0,0,0,0,0,0,0,0
Nc1ncc2c(-c3ccncc3)c[nH]c2n1 [Compound 11],89.7,0,0,0,0,0,0,84,0
